Kd data for 4 compounds are collected here from paper PMC5727262, “Molecular mechanism of K65 acetylation-induced attenuation of Ubc9 and the NDSM interaction” (Scientific Reports, 2017).

Peptide text beside a SMILES is read from it.

For one assay, the target named is T1, Ac-Ubc9K65 (Homo sapiens, UniProt P63279).
T1 construct: made in house; host or cells: E. coli BL21 (DE3) with pAcKRS-3 and pCDF PylT-1-Ubc9 (amber codon at K65), fed acetyl-lysine
The assay is described as follows: ITC binding of sumoylation-motif peptides to K65-acetylated Ubc9. The note with it: 25 °C, pH 8.0, 20 mM potassium phosphate, 100 mM NaCl, 1:1 binding stoichiometry assumed, triplicate measurements. Here is the method:
(§1) ITC binding experiments were used to quantify the effect of Ubc9 acetylation on NDSM substrate binding (Fig. 2A). […] The dissociation constants for Elk1 and CBP were 70 and 57 μM, respectively (Fig. 2C and D), which were roughly similar to the dissociation constant of 56 μM obtained for the more acidic Calpain2 (Fig. 2E). Contrary to our expectations, RanGAP1 bound more strongly than the NDSMs with a dissociation constant of 13 μM. […] Similarly, not every acidic residue from the NDSM contributed equally to Ubc9 binding and even positions ×1 and ×2 could be potentially deciding factors. We exploited the long acidic stretch of Calpain2 in additional studies described below to explain this phenomenon. […] The observed switching from exothermic versus endothermic binding of the NDSM versus SM containing peptides is surprising. We speculate that the long negatively charged tail of NDSM may interact with Ubc9 in such a way that it free up more Ubc9-bound water molecules, resulting in an overall entropy increase. More work need to be done to fully understand its implication in binding mechanism.
(§2) Figure 2 Effect of K65 acetylation on Ubc9 affinity for substrates. (A) Summary of the thermodynamic parameters obtained from triplicate isothermal titration calorimetry (ITC) measurements. Representative ITC thermograms for Ubc9 binding to the RanGAP1 (B), Elk1 (C), CBP (D), and Calpain2 (E) peptides. The heat absorbed (or released) post-injection, after correcting for the heat of dilution, is shown in lower panels. […]
(§3) The ITC experiments were repeated twice at 25 °C by a controlled 2 μl addition of peptide to 200 μl of WT or Ac-Ubc9K65 in pH 8.0 buffer containing 20 mM potassium phosphate and 100 mM NaCl using an iTC200 calorimeter (GE Healthcare, Parsippany, NJ, USA). The first data point of each experiment was excluded from analysis and the baseline-corrected data were analyzed using Origin 7.0 software assuming 1:1 binding stoichiometry.

Another assay addresses T2, Ubc9 (WT) (Homo sapiens, UniProt P63279).
T2 construct: made in house; host or cells: E. coli (stated as BL21 (DE3) for the acetylated variant)
The assay is described as follows: ITC binding of sumoylation-motif peptides to WT Ubc9. The note with it: 25 °C, pH 8.0, 20 mM potassium phosphate, 100 mM NaCl, 1:1 binding stoichiometry assumed, triplicate measurements. Here is the method: as §1, §2, §3

A word on the Kd: it is the free concentration of one partner at which half of the binding sites on the other are occupied at equilibrium, for simple one-to-one binding.

T1 sequence (P63279 2-158): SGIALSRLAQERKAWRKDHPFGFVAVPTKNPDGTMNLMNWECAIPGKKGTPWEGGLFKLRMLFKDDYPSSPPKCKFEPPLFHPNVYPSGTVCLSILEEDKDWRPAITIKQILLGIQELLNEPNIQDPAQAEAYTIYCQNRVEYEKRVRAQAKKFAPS
T2 sequence (P63279 whole entry): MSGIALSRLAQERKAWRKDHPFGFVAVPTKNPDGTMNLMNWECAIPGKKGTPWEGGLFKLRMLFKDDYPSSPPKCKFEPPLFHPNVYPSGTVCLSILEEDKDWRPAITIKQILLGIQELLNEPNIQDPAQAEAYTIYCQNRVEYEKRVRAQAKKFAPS

As for `CC[C@H](C)[C@H](NC(=O)[C@H](CC(C)C)NC(=O)[C@H](Cc1ccc(O)cc1)NC(=O)[C@H](CCC(N)=O)NC(=O)[C@@H]1CCCN1)C(=O)N[C@@H](CCCCN)C(=O)N[C@@H](CC(C)C)C(=O)N[C@@H](CCC(=O)O)C(=O)N[C@@H](CCC(=O)O)C(=O)N[C@@H](CCC(=O)O)C(=O)N[C@@H](CC(=O)O)C(=O)N[C@@H](CCC(=O)O)C(=O)N[C@@H](CC(=O)O)C(=O)N[C@@H](CCC(=O)O)C(=O)N[C@@H](CCC(=O)O)C(=O)N[C@@H](CC(=O)O)C(=O)NCC(=O)N[C@@H](CCC(=O)O)C(=O)N[C@@H](CO)C(=O)NCC(=O)N[C@@H](CS)C(=O)N[C@H](C(=O)O)[C@@H](C)O` [Calpain2] (H-PQYLIKLEEEDEDEEDGESGCT-OH), the equilibrium dissociation constant (Kd) on Ac-Ubc9K65 was determined as 80.3 ± 2.7 µM; at Ubc9 (WT), 55.8 ± 3.3 µM.
With `CC(C)C[C@H](NC(=O)[C@H](CCC(=O)O)NC(=O)[C@H](CCC(=O)O)NC(=O)[C@H](CCCCN)NC(=O)[C@@H]1CCCN1C(=O)CNC(=O)[C@H](CCC(=O)O)NC(=O)[C@@H](NC(=O)[C@H](CCCCN)NC(=O)[C@@H](NC(=O)[C@H](CCC(=O)O)NC(=O)[C@@H]1CCCN1C(=O)[C@@H]1CCCN1C(=O)[C@H](CC(C)C)NC(=O)[C@H](C)NC(=O)[C@@H](N)CCCNC(=N)N)C(C)C)C(C)C)C(=O)N[C@@H](CCC(=O)O)C(=O)N[C@H](C(=O)N[C@@H](C)C(=O)NCC(=O)O)C(C)C` [Elk1] (H-RALPPEVKVEGPKEELEVAG-OH), the dissociation constant Kd at Ac-Ubc9K65 was found to be 103 µM; at Ubc9 (WT), 70.2 ± 1.3 µM.
For `CC(C)[C@H](NC(=O)[C@H](CCC(=O)O)NC(=O)[C@@H](NC(=O)[C@H](CCCCN)NC(=O)[C@@H](NC(=O)[C@H](CCC(=O)O)NC(=O)[C@@H]1CCCN1C(=O)[C@H](CCCCN)NC(=O)[C@H](CCCCN)NC(=O)[C@H](CCC(=O)O)NC(=O)[C@@H](N)CC(=O)O)C(C)C)C(C)C)C(=O)N[C@@H](CCCCN)C(=O)N[C@@H](CCC(=O)O)C(=O)N[C@@H](CCC(=O)O)C(=O)N[C@@H](CCC(=O)O)C(=O)N[C@@H](CCC(=O)O)C(=O)N[C@@H](CO)C(=O)N[C@@H](CO)C(=O)N[C@@H](CO)C(=O)N[C@@H](CC(N)=O)C(=O)O` [CBP] (H-DEKKPEVKVEVKEEEESSSN-OH), the Kd on Ac-Ubc9K65 stood at 105 µM; on Ubc9 (WT) it was 57.4 ± 2.8 µM.
As for `CC[C@H](C)[C@H](NC(=O)[C@H](C)NC(=O)[C@H](CCCCN)NC(=O)[C@@H](NC(=O)[C@H](CCCCN)NC(=O)[C@H](CC(=O)O)NC(=O)[C@H](CCC(=O)O)NC(=O)[C@H](CO)NC(=O)[C@H](CCCCN)NC(=O)[C@H](CC(C)C)NC(=O)[C@H](CC(C)C)NC(=O)CNC(=O)[C@H](CCSC)NC(=O)[C@H](Cc1c[nH]cn1)NC(=O)[C@@H](NC(=O)[C@@H](N)CC(C)C)C(C)C)C(C)C)C(=O)N[C@@H](C)C(=O)N[C@@H](CC(N)=O)C(=O)N[C@@H](CC(C)C)C(=O)N[C@@H](Cc1ccc(O)cc1)C(=O)O` [RanGAP1, reference compound] (H-LVHMGLLKSEDKVKAIANLY-OH), the Kd at Ac-Ubc9K65 amounted to 13.5 ± 2.2 µM; on Ubc9 (WT) it was 13.5 ± 0.9 µM.
